The target in one assay is T1, PDE5A (Homo sapiens, UniProt O76074).
T1 construct: they are full-length with N-terminal GST tag; GST (N); purchased BPS Biosciences 60050; host or cells: baculovirus infected Sf9 cells
Nature of the assay: PDE enzyme activity assay (HTRF cGMP), PDE5A. Format: biochemical. The following applies: recombinant enzyme; read-out: PDE5A1 inhibition (IC50).

A further assay has as its target HDAC1 (Homo sapiens, UniProt Q13547). As to the kind of experiment: HDAC enzyme activity assay (fluorogenic substrate), HDAC1. Format: biochemical. The following applies: recombinant enzyme; read-out: HDAC1 inhibition (IC50).

SMILES strings stand for the structures.

HDAC1, sequence (Q13547 whole entry): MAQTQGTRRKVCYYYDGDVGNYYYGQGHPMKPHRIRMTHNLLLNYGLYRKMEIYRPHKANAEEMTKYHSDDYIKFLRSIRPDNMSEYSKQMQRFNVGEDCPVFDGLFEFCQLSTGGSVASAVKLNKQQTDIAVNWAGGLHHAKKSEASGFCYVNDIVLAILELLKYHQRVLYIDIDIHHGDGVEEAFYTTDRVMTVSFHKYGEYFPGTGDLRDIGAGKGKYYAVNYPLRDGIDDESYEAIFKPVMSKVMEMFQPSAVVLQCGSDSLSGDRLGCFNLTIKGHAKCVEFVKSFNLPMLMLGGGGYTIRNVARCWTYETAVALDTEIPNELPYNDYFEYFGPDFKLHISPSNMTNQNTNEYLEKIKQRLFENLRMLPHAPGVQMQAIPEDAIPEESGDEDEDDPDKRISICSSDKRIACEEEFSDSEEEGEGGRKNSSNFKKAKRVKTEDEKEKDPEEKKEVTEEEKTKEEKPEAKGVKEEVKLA

As to `O=C(NO)c1cnc(N2CCC(N3CC(=O)N4C(Cc5c([nH]c6ccccc56)C4c4ccc5c(c4)OCO5)C3=O)CC2)nc1` (racemic) [Example 4-03, N-Hydroxy-2-(4-[6-(1,3-benzodioxol-5-yl)-2,3,6,7,12,12a-hexahydropyrazino[1′,2′:1,6]pyrido[3,4-b]indole-1,4-dion-2-yl]piperidin-1-yl)pyrimidine-5-carboxamide], the IC50 on PDE5A and at HDAC1 was 10 to 1000 nM in each case.
In the case of `CCCc1nn(C)c2c(=O)[nH]c(-c3cc(OCC4CCN(c5ncc(C(=O)NO)cn5)CC4)ccc3OCC)nc12` [Example 1-11, N-Hydroxy-2-(4-[3-(6,7-dihydro-1-methyl-7-oxo-3-propyl-1H-pyrazolo[4,3-d]pyrimidin-5-yl)-4-ethoxyphenoxymethyl]-piperidin-1-yl)pyrimidine-5-carboxamide], the values for the IC50 at PDE5A and on HDAC1 were 1000 to 10000 nM and 10 to 1000 nM, respectively.
The corresponding values for `CCCc1nc(C)c2c(=O)[nH]c(-c3cc(S(=O)(=O)N4CCN(Cc5ccc(/C=C/C(=O)NO)cc5)CC4)ccc3OCC)nn12` [Example 2-01, (E)-3-[4-[[4-[4-Ethoxy-3-(5-methyl-4-oxo-7-propyl-3H-imidazo[5,1-f][1,2,4]triazin-2-yl)phenyl]sulfonylpiperazin-1-yl]methyl]phenyl]prop-2-enehydroxamic acid] are less than 10 nM and 1000 to 10000 nM.
For `O=C(/C=C/c1ccc(N2CC(=O)N3[C@H](c4ccc5c(c4)OCO5)c4[nH]c5ccccc5c4C[C@@H]3C2=O)cc1)NO` [Example 4-01, (E)-N-Hydroxy-4-[6-(1,3-benzodioxol-5-yl)-2,3,6,7,12,12a-hexahydropyrazino[1′,2′:1,6]pyrido[3,4-b]indole-1,4-dion-2-yl]phenylprop-2-enamide], the results for the IC50 on PDE5A and on HDAC1 were 10 to 1000 nM and more than 10000 nM, respectively.
The corresponding values for `O=C(CCCN1CCC(N2CC(=O)N3[C@H](c4ccc5c(c4)OCO5)c4[nH]c5ccccc5c4C[C@@H]3C2=O)CC1)NO` [Example 4-02] are 10 to 1000 nM and more than 10000 nM.
The corresponding values for `O=C(/C=C/c1ccc(CN2CCC(N3CC(=O)N4[C@H](c5ccc6c(c5)OCO6)c5[nH]c6ccccc6c5C[C@@H]4C3=O)CC2)cc1)NO` [Example 4-04] are 10 to 1000 nM and 10 to 1000 nM.
On to `CCCc1nn(C)c2c(=O)[nH]c(-c3cc(S(=O)(=O)N4CCN(C)CC4)ccc3OCC)nc12` [Sildenafil, reference compound], for which the IC50 at HDAC1 was more than 10000 nM.

The values above are taken from patent US9573956B2, “Compounds as dual inhibitors of phosphodiesterases and histone deacetylases” (FUNDACIÓN PARA LA INVESTIGACIÓN MÉDICA APLICADA, priority 2013, dated 2017).
